Where a name gives a salt, the structure may show the parent alone.

The target of the first assay is T1, human HSD-1 (recombinant HSD-1) (Homo sapiens, UniProt P28845).
T1 construct: made in house
T1 sequence (P28845 whole entry): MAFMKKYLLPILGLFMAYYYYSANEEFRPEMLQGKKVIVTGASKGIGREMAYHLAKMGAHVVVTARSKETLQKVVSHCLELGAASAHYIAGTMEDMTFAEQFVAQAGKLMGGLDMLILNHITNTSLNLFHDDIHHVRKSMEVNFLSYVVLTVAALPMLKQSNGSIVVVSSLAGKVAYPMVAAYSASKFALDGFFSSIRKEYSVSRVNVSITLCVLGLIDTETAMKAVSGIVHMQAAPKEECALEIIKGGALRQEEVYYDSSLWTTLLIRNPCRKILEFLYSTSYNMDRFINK
The experiment in a line: HSD-1 activity inhibitory action in vitro (SPA, conversion of cortisone to cortisol). The assay is classed as biochemical.
Conditions: not given
Usually IC50 stands for the point on the concentration scale where inhibition reaches its midpoint. Consider `O=C1CCN(C(=O)N2CCC(n3ncc(C(=O)N4CC[C@@H](c5ccccc5C(F)(F)F)C4)c3C3CC3)CC2)CC1` [Example 44, 1-{5-cyclopropyl-1-[1-(4-oxopiperidine-1-carbonyl)piperidin-4-yl]-1H-pyrazole-4-carbonyl}-[(S)-3-(2-trifluoromethylphenyl)]pyrrolidine], for which the IC50 is less than 30 nM.

The same assay, now with this note: recombinant human HSD-1 expressed using baculovirus system; 10 nM 3H cortisone, 500 μM NADPH; room temperature 90 to 120 min; read-out: hHSD1 (IC50 (nM)).
With `CC1(c2c(C(=O)N3CCC(c4cccnc4)C3)cnn2C2CCN(C(=O)N3CCc4ccccc43)CC2)CC1` (stereo not drawn) [Example 148, 1-{1-[1-(2,3-dihydroindole-1-carbonyl)piperidin-4-yl]-5-(1-methylcyclopropyl)-1H-pyrazole-4-carbonyl}-3-(pyridin-3-yl)pyrrolidine], the IC50 is less than 30 nM.
Same read-out and setting: with `O=C(NCCO)N1CCC(n2ncc(C(=O)N3CC[C@@H](c4ccccc4C(F)(F)F)C3)c2C2CC2)CC1` [Example 8, 1-{5-cyclopropyl-1-[1-(2-hydroxyethylcarbamoyl)piperidin-4-yl]-1H-pyrazole-4-carbonyl}-[(S)-3-(2-trifluoromethylphenyl)]pyrrolidine] the figure was less than 30 nM; with `O=C(O)C1CCN(C(=O)N2CCC(n3ncc(C(=O)N4CC[C@@H](c5ccccc5C(F)(F)F)C4)c3C3CC3)CC2)CC1` [Example 25, 1-{1-[1-(4-carboxypiperidine-1-carbonyl)piperidin-4-yl]-5-cyclopropyl-1H-pyrazole-4-carbonyl}-[(S)-3-(2-trifluoromethylphenyl)]pyrrolidine], less than 30 nM; with `CC1(c2c(C(=O)N3CCC(c4ccccc4C(F)(F)F)C3)cnn2[C@H]2CC[C@H](C(=O)Nc3ccccc3F)CC2)CC1` (stereo partly drawn) [Example 190, 1-{5-(1-methylcyclopropyl)-1-[trans-4-(2-fluorophenylcarbamoyl)cyclohexyl]-1H-pyrazole-4-carbonyl}-3-(2-trifluoromethylphenyl)pyrrolidine], less than 30 nM.
Same read-out and setting: with `O=C(c1cnn(C2CCN(S(=O)(=O)CC(F)(F)F)CC2)c1C1CC1)N1CC[C@@H](c2ccccc2C(F)(F)F)C1` [Example 109, 1-{5-cyclopropyl-1-[1-(2,2,2-trifluoroethanesulfonyl)piperidin-4-yl]-1H-pyrazole-4-carbonyl}-[(S)-3-(2-trifluoromethylphenyl)]pyrrolidine] the figure was less than 30 nM; with `O=C(CCCO)N1CCC(n2ncc(C(=O)N3CC[C@@H](c4ccccc4C(F)(F)F)C3)c2C2CC2)CC1` [Example 80, 1-{5-cyclopropyl-1-[1-(4-hydroxybutyryl)piperidin-4-yl]-1H-pyrazole-4-carbonyl}-[(S)-3-(2-trifluoromethylphenyl)]pyrrolidine], less than 30 nM.
For `CC1(c2c(C(=O)N3CCC(c4cccnc4)C3)cnn2C2CCN(C(=O)N3CCCCc4ccccc43)CC2)CC1` (stereo not drawn) [Example 151, 1-{5-(1-methylcyclopropyl)-1-[1-(2,3,4,5-tetrahydrobenzo[b]azepine-1-carbonyl)piperidin-4-yl]-1H-pyrazole-4-carbonyl}-3-(pyridin-3-yl)pyrrolidine], the IC50 is less than 30 nM.
`O=C(NCC(F)(F)F)N1CCC(n2ncc(C(=O)N3CC[C@@H](c4ccccc4C(F)(F)F)C3)c2C2CC2)CC1` [Example 47, 1-{5-cyclopropyl-1-[1-(2,2,2-trifluoroethylcarbamoyl)piperidin-4-yl]-1H-pyrazole-4-carbonyl}-[(S)-3-(2-trifluoromethylphenyl)]pyrrolidine]: the IC50 is less than 30 nM.
Regarding `O=C(O)c1ccc(N2CCC(n3ncc(C(=O)N4CCC(c5ccccc5C(F)(F)F)C4)c3C3CC3)CC2)s1` (stereo not drawn) [Example 115, 5-(4-{5-cyclopropyl-4-[3-(2-trifluoromethylphenyl)pyrrolidine-1-carbonyl]pyrazol-1-yl}piperidin-1-yl)thiophene-2-carboxylic acid], the IC50 is less than 30 nM.
Still for that read-out and setting: with `O=C(Nc1ccccc1O)N1CCC(n2ncc(C(=O)N3CC[C@@H](c4ccccc4C(F)(F)F)C3)c2C2CC2)CC1` [Example 53, 1-{5-cyclopropyl-1-[1-(2-hydroxyphenylcarbamoyl)piperidin-4-yl]-1H-pyrazole-4-carbonyl}-[(S)-3-(2-trifluoromethylphenyl)]pyrrolidine] the figure was less than 30 nM; with `O=C(c1cnn(C2CCN(C(=O)N3CCC(F)(F)CC3)CC2)c1C1CC1)N1CC[C@@H](c2ccccc2C(F)(F)F)C1` [Example 18, 1-{5-cyclopropyl-1-[1-(4,4-difluoropiperidine-1-carbonyl)piperidin-4-yl]-1H-pyrazole-4-carbonyl}-[(S)-3-(2-trifluoromethylphenyl)]pyrrolidine], less than 30 nM; with `CN/C(=N\C#N)N1CCC(n2ncc(C(=O)N3CC[C@@H](c4ccccc4C(F)(F)F)C3)c2C2CC2)CC1` [Example 111, 1-(1-{1-[cyanoimino(methylamino)methyl]piperidin-4-yl}-5-cyclopropyl-1H-pyrazole-4-carbonyl)-[(S)-3-(2-trifluoromethylphenyl)]pyrrolidine], less than 30 nM.
Take `O=C(O)C(=O)N1CCC(n2ncc(C(=O)N3CCC(c4ccccc4C(F)(F)F)C3)c2C2CC2)CC1` (stereo not drawn) [Example 158, 1-[5-cyclopropyl-1-(1-oxalylpiperidin-4-yl)-1H-pyrazole-4-carbonyl]-3-(2-trifluoromethylphenyl)pyrrolidine]: the IC50 was less than 30 nM.
Take `CC(=O)N1CCN(C(=O)N2CCC(n3ncc(C(=O)N4CC[C@@H](c5ccccc5C(F)(F)F)C4)c3C3CC3)CC2)CC1` [Example 31, 1-{1-[1-(4-acetylpiperazine-1-carbonyl)piperidin-4-yl]-5-cyclopropyl-1H-pyrazole-4-carbonyl}-[(S)-3-(2-trifluoromethylphenyl)]pyrrolidine]: the IC50 was less than 30 nM.
Turning to `CC(=O)NCCC(=O)N1CCC(n2ncc(C(=O)N3CC[C@@H](c4ccccc4C(F)(F)F)C3)c2C2CC2)CC1` [Example 75, 1-{1-[1-(3-acetylaminopropionyl)piperidin-4-yl]-5-cyclopropyl-1H-pyrazole-4-carbonyl}-[(S)-3-(2-trifluoromethylphenyl)]pyrrolidine], the IC50 was less than 30 nM.
For `O=C(Nc1ccccc1F)N1CCC(n2ncc(C(=O)N3CCC(c4cccnc4)C3)c2C2CCCCC2)CC1` (stereo not drawn) [Example 139, 1-{5-cyclohexyl-1-[1-(2-fluorophenylcarbamoyl)piperidin-4-yl]-1H-pyrazole-4-carbonyl}-3-(pyridin-3-yl)pyrrolidine], the IC50 was less than 30 nM.
Consider `NC(=O)C1CN(C(=O)N2CCC(n3ncc(C(=O)N4CC[C@@H](c5ccccc5C(F)(F)F)C4)c3C3CC3)CC2)C1` [Example 34, 1-{1-[1-(3-carbamoylazetidine-1-carbonyl)piperidin-4-yl]-5-cyclopropyl-1H-pyrazole-4-carbonyl}-[(S)-3-(2-trifluoromethylphenyl)]pyrrolidine], for which the IC50 is less than 30 nM.
For `O=C(c1cccc(Cl)c1)N1CCC(n2ncc(C(=O)N3CCC(c4cccnc4)C3)c2C2CC2)CC1` (stereo not drawn) [Example 156, 1-{1-[1-(3-chlorobenzoyl)piperidin-4-yl]-5-cyclopropyl-1H-pyrazole-4-carbonyl}-3-(pyridin-3-yl)pyrrolidine], the IC50 was less than 30 nM.
Turning to `CC(C)(CC(=O)N1CCC(n2ncc(C(=O)N3CCC(c4ccccc4C(F)(F)F)C3)c2C2CC2)CC1)C(=O)O` (stereo not drawn) [Example 154, 1-{1-[1-(3-carboxy-3-methyl-butyryl)piperidin-4-yl]-5-cyclopropyl-1H-pyrazole-4-carbonyl}-3-(2-trifluoromethylphenyl)pyrrolidine], the IC50 is less than 30 nM.
On to `NC(=O)CN1CCC(n2ncc(C(=O)N3CC[C@@H](c4ccccc4C(F)(F)F)C3)c2C2CC2)CC1` [Example 94, 1-[1-(1-carbamoylmethylpiperidin-4-yl)-5-cyclopropyl-1H-pyrazole-4-carbonyl]-[(S)-3-(2-trifluoromethylphenyl)]pyrrolidine hydrochloride], for which the IC50 was less than 30 nM.
Turning to `CC1(c2c(C(=O)N3CCC(CO)(c4ccc(F)cc4)C3)cnn2C2CCN(c3ncccn3)CC2)CC1` (single isomer, unassigned; (+)) [Example 128, (+)-3-(4-fluorophenyl)-3-hydroxymethyl-1-{5-(1-methylcyclopropyl)-1-[1-(pyrimidin-2-yl)piperidin-4-yl]-1H-pyrazole-4-carbonyl}pyrrolidine hydrochloride], the concentration for half-maximal inhibition (IC50) is less than 30 nM.
On to `O=C(NCCN1CCCCC1)N1CCC(n2ncc(C(=O)N3CC[C@@H](c4ccccc4C(F)(F)F)C3)c2C2CC2)CC1` [Example 17, 1-{5-cyclopropyl-1-[1-(2-piperidin-1-yl-ethylcarbamoyl)piperidin-4-yl]-1H-pyrazole-4-carbonyl}-[(S)-3-(2-trifluoromethylphenyl)]pyrrolidine hydrochloride], for which the IC50 is less than 30 nM.
The same measure, in the same setting: with `CN(C)CC(=O)N1CCC(n2ncc(C(=O)N3CC[C@@H](c4ccccc4C(F)(F)F)C3)c2C2CC2)CC1` [Example 67, 1-{5-cyclopropyl-1-[1-(2-dimethylaminoacetyl)piperidin-4-yl]-1H-pyrazole-4-carbonyl}-[(S)-3-(2-trifluoromethylphenyl)]pyrrolidine hydrochloride] the figure was less than 30 nM; with `O=C(c1cnn(C2CCN(c3n[nH]c(C(F)(F)F)n3)CC2)c1C1CC1)N1CC[C@@H](c2ccccc2C(F)(F)F)C1` [Example 120, 1-{5-cyclopropyl-1-[1-(5-trifluoromethyl-4H-[1,2,4]triazol-3-yl)piperidin-4-yl]-1H-pyrazole-4-carbonyl}-[(S)-3-(2-trifluoromethylphenyl)]pyrrolidine hydrochloride], less than 30 nM.
`NC(=O)CCN1CCC(n2ncc(C(=O)N3CC[C@@H](c4ccccc4C(F)(F)F)C3)c2C2CC2)CC1` [Example 97, 1-{1-[1-(2-carbamoylethyl)piperidin-4-yl]-5-cyclopropyl-1H-pyrazole-4-carbonyl}-[(S)-3-(2-trifluoromethylphenyl)]pyrrolidine hydrochloride]: the IC50 is less than 30 nM.
As to `CC(C)[C@@H](C(=O)O)N(C)C(=O)[C@H]1CC[C@H](n2ncc(C(=O)N3CCC(c4ccccc4C(F)(F)F)C3)c2C2CC2)CC1` (stereo partly drawn) [Example 189, (S)-2-[(trans-4-{5-cyclopropyl-4-[3-(2-trifluoromethylphenyl)pyrrolidine-1-carbonyl]pyrazol-1-yl}cyclohexanecarbonyl)methylamino]-3-methylbutyric acid], the IC50 is less than 30 nM.

These data come from US20100010219A1, “METHOD FOR PRODUCING PYRROLIDINE COMPOUND” (JAPAN TOBACCO INC., priority 2006, published 2010).
